# Results: patent publication US12295973B2 (Fred Hutchinson Cancer Center, priority 2017, dated 2025)
# Where a SMILES comes first, the peptide text is derived from it. [ ]: non-standard residue; d: D form. The star is where a group is joined. dPhe(4-NHCONH2) = NC(=O)Nc1ccc(C[C@@H](N)C(=O)O)cc1; Dihydroorotyl(S) = O=C1C[C@@H](C(=O)*)NC(=O)N1; dPhe(4-Cl) = N[C@H](Cc1ccc(Cl)cc1)C(=O)O; Phe(4-NH2) = Nc1ccc(C[C@H](N)C(=O)O)cc1; d2Nal = N[C@H](Cc1ccc2ccccc2c1)C(=O)O; Lys(iPr) = CC(C)NCCCC[C@H](N)C(=O)O; d3Pal = N[C@H](Cc1cccnc1)C(=O)O
# How the values were obtained:
# mice exposed to L-TBI [1] = assay: Mouse survival after lethal total body irradiation (L-TBI, 840cGy); format: in vivo
# From the text: (§1) Description. Inhibition of sex steroids, which can be achieved in a reversible fashion pharmacologically, is a well-described strategy to promote lymphopoiesis in the BM and thymus^8,7,14,15. Although the most common method of sex steroid ablation clinically has been to use LHRH-agonists, it was described that an LHRH-Antagonist represents a more rational approach to promote immediate ablation of sex steroids for immune regeneration as it is far more rapid and abrogates the initial surge in sex steroids that LHRH-Agonist cause^16. Taken together with the impact of sex steroid inhibition on HSC function and the rapid regenerative effects of LHRH-Ant, it was hypothesized that LHRH-Ant could represent a rational non-cellular medical countermeasure for mitigating radiation injury and promoting hematopoietic regeneration when administered after hematopoietic insult. […] It was then tested if LHRH-Ant could mediate even greater mouse survival when administered multiple times.
# Methods. […] B6.SJL-Ptprca Pepcb/BoyJ (CD45.1) male mice (The Jackson Laboratory) were used between 7 and 12 weeks of age for transplant. Mice were irradiated with a Gammacell 40 Irradiator (Cs-137), with an average dose rate of 95 cGy/min, in a plexiglass mouse pie cage. To assess mouse survival after radiation, mice were monitored for up to 60 days after TBI. To adjust for differences in weight, identical mice were purchased from Jackson and cages randomly distributed over different groups. All animal protocols were approved by the Memorial Sloan Kettering Cancer Center Institutional Animal Care and Use Committee.
# Reagents: Degarelix (as acetate), a LHRH-Ant (Firmagon), was resuspended in sterile water for injection and administered S.C. to mice at a dose of 40 mg/kg. To evaluate the radiomitigative effect of LHRH-Ant on survival, mice were treated subcutaneously (S.C.) with a single injection of the LHRH-Ant or a saline control solution (PBS). Degarelix was purchased from the Memorial Sloan-Kettering Cancer Center Pharmacy. […] MDV3100 (selleckchem) was resuspended in a mixture of 45% PBS, 45% PEG and 10% DMSO and administered daily to mice by oral gavage at a dose of 10 mg/kg. 5-FU (InvivoGen) was administered to mice intraperitoneally (I.P.) at a dose of 150 mg/kg once every 7 days consecutively for 3 times as previously described^34,47,49.
# [2] = system: mice challenged with successive doses of 5-FU; assay: Mouse survival after serial 5-fluorouracil (5-FU) challenge; format: in vivo; conditions: 5-FU 150 mg/kg I.P. once every 7 days, 3 times
# From the text: To test whether this LHRH-Ant-mediated preservation of HSC quiescence and enhancement of HSC survival after hematopoietic stress could confer protection against chemotherapy-induced myeloablation, mice were challenged with successive doses of 5-fluorouracil (5-FU); a well-established method to functionally test HSC proliferation and self-renewal that leads to ablation of proliferating HSCs and ultimately death^29,34,47.
# Reagents: Degarelix (as acetate), a LHRH-Ant (Firmagon), was resuspended in sterile water for injection and administered S.C. to mice at a dose of 40 mg/kg. To evaluate the radiomitigative effect of LHRH-Ant on survival, mice were treated subcutaneously (S.C.) with a single injection of the LHRH-Ant or a saline control solution (PBS). Degarelix was purchased from the Memorial Sloan-Kettering Cancer Center Pharmacy. […] LH from human pituitary (SIGMA) was resuspended in PBS for in vitro studies. MDV3100 (selleckchem) was resuspended in a mixture of 45% PBS, 45% PEG and 10% DMSO and administered daily to mice by oral gavage at a dose of 10 mg/kg. 5-FU (InvivoGen) was administered to mice intraperitoneally (I.P.) at a dose of 150 mg/kg once every 7 days consecutively for 3 times as previously described^34,47,49.
# mice exposed to L-TBI [3] = assay: Complete blood counts (peripheral blood recovery) after L-TBI; format: in vivo, mouse; conditions: vs vehicle
# From the text: as §1, with “insult. To test this hypothesis, a lethal TBI (L-TBI) dose of 840cGy that mediated lethality in more than 90% of mice (FIG. 1A) was used. […] Mouse lethality was a result of bone marrow failure, since transplant of BM Lin-Sca1^+tkit^+ (LSK) cells 3 days after L-TBI completely rescued all mice (FIG. 1B).” for “insult.”
# Methods. […] To assess mouse survival after radiation, mice were monitored for up to 60 days after TBI. […]
structure (smiles),measurement,setting,value
"CC(=O)N[C@H](Cc1ccc2ccccc2c1)C(=O)N[C@H](Cc1ccc(Cl)cc1)C(=O)N[C@H](Cc1cccnc1)C(=O)N[C@@H](CO)C(=O)N[C@@H](Cc1ccc(NC(=O)[C@@H]2CC(=O)NC(=O)N2)cc1)C(=O)N[C@H](Cc1ccc(NC(N)=O)cc1)C(=O)N[C@@H](CC(C)C)C(=O)N[C@@H](CCCCNC(C)C)C(=O)N1CCC[C@H]1C(=O)N[C@H](C)C(N)=O [LHRH-Ant, Degarelix] (Ac-[d2Nal][dPhe(4-Cl)][d3Pal]S[Phe(4-NH2)](Dihydroorotyl(S))[dPhe(4-NHCONH2)]L[Lys(iPr)]P[dA]-NH2)",survival after L-TBI,"mice exposed to L-TBI [1]; LHRH-Ant given 24 h after L-TBI, vs vehicle, male mice",significant increase in survival
same,survival after L-TBI,mice exposed to L-TBI [1]; administered 48 h after L-TBI,significantly enhanced mouse survival
same,survival after L-TBI in female mice,mice exposed to L-TBI [1]; female mice,statistically significant benefit in survival
same,survival after L-TBI in surgically castrated mice,"mice exposed to L-TBI [1]; male mice castrated 5 days prior to TBI, simultaneous LHRH-Ant",restored the benefits in mouse survival
same,"survival after L-TBI, multiple administrations","mice exposed to L-TBI [1]; treatment 24 h and 15 days after L-TBI, vs single treatment",did not significantly enhance the survival benefit
same,survival after serial 5-FU challenge,[2],significantly improved survival
same,complete blood counts recovery after L-TBI,mice exposed to L-TBI [3],recovered after L-TBI
